Measurements published in patent US20110144125A1, “Anti-Arrhythmia Agents, Methods of Their Use, Methods of Their Identification and Kits Therefore” (THE UAB RESEARCH FOUNDATION, priority 2008, published 2011).
Where “and” joins values, the source holds several entries; their conditions need not be identical. Identical values can stand only once. Entries after “also recorded” stand apart in the source; their conditions may differ. Like-named read-outs stand apart in the source and are kept apart here.

Key:
rat left atria [1] = test: Spontaneous tachycardic activity (STA) in isolated rat left atria exposed to 2-APB under increased calcium load
Procedure: Male Sprague-Dawley rats (325-400 g) were anesthetized with intra-peritoneal pentobarbital (0.1 g/kg). Their right and left atria were isolated, superfused at 30° C. in Krebs-Henseleit buffer, and nearly isometric forces of contraction were measured from these muscles (Wolkowicz et al., 2002). 2-APB was prepared as a 150 mM dimethyl sulfoxide stock.
(§1) Left atria (n=8 per group) were paced at 3 Hz and (i) titrated with 0 to 30 nM isoproterenol (Ahlquist, 1970) or (ii) exposed to 3 μM forskolin (Laurenza et al., 1980). Left atrial force and frequency of contraction, the time to peak tension and relaxation times were recorded after a 3-5 min exposure to forskolin or to any concentration of isoproterenol. The 3 Hz pacing stimulus was interrupted at the end of these protocols to measure SMEs.
Left atria (n=10 per group) were paced at 0.1 Hz and treated with (i) 20 μM 2-APB for 10 min, (ii) with 30 nM isoproterenol for 5 min followed by 20 μM 2-APB for 10 min, and (iii) with 3 μM forskolin for 5 min followed by 20 μM 2-APB for 10 min.
Left atrial contraction and relaxation times were recorded at these five times, the pacing stimulus was stopped and rates of SMA were recorded. To determine whether initial pacing rate affects left atrial response to 2-APB and isoproterenol, left atria (n=5-7 per group) were paced at 3 Hz and (i) remained untreated for 15 min, (ii) were treated with 20 μM 2-APB alone for 10 min, or (ii) were treated with 30 nM isoproterenol for 5 min followed by 20 μM 2-APB for 10 min. Atrial mechanical function was measured at these four times; the pacing stimulus then was stopped and rates of SMA were recorded.
(§2) Left atria (n=6 per group) were paced at 3 Hz, titrated with 0 to 300 nM (−)BayK 8644 ([…]-1,4-Dihydro-2,6-dimethyl-5-nitro-4-[2-(trifluormethyl)phenyl]-3-pyridinecarboxylic acid methyl ester; Franckowiak et al. 1985) or FPL-64176 ((2,5-Dimethyl-4-[2-(phenylmethyl)benzoyl]-111-pyrrole-3-carboxylic acid methyl ester; Zheng et al., 1991) and their mechanical function and rates of SMA were recorded after a 5 min exposure to any concentration of slow calcium channel activator.
Left atria (n=8 per group) were paced at 0.1 Hz, exposed to 300 nM BayK 8644 or FPL-64176 for 5 min followed by 20 μM 2-APB for 10 min. Atrial mechanical function was recorded at this time; the pacing stimulus then was stopped and rates of SMA were recorded.
(§3) To test whether ryanodine receptor calcium leak produces SMA, left atria (n=6 per group) were paced at 0.1 Hz, treated with 0 or 300 nM BayK 8644 for 5 min, and then exposed to 600 nM ryanodine (Sutko et al., 1997). Atrial mechanical function and rates of SMA were recorded 20 min after exposure to ryanodine.
Rates of SMA were measured 5 min later.
(§4) Left atria (n=7) were paced at 3 Hz, treated with 120 μM ouabain (Illanes and Marshall, 1964), and any change in mechanical function was recorded at a new steady state, ˜10 min later. These atria were exposed to 20 μM 2-APB and their mechanical function and rates of SMA were recorded 10 min later.
3 Hz-paced left atria (n=9 per group) were superfused (i) in Krebs-Henseleit alone or (ii) they were treated with 20 μM 2-APB for 10 min, (iii) with 300 nM BayK 8644 for 10 min and with 20 μM 2-APB for 10 min, or (iv) they were treated with 300 nM BayK 8644 and 20 μM 2-APB for 10 min, then with 70 μM zatebradine (3-[3-[[2-(3,4-Dimethoxyphenyl)ethyl]methylamino] propyl]-1,3,4,5-tetrahydro-7,8,-dimethoxy-2H-3-benzazepin-2-one hydrochloride) for 10 min (Baruscotti et al., 2005). Pacing was interrupted at these times and rates of SMA were recorded.

rat left atria [2] = test: Left atrial force of contraction / post-rest potentiation maximum force
Procedure: Left atria were isolated from male Sprague-Dawley rats (325 to 400 g) under IP pentobarbital anesthesia (0.1 g/kg). Isolated left atria were superfused at 30° C. in Krebs-Henseleit (KH) buffer of the following mM composition: NaCl, 118; NaHCO3, 27; KCl, 4.8; MgSO4, 1.2; KH2PO4, 1.0; CaCl2, 1.8; and glucose, 11.1. Nearly isometric left atrial forces of contraction were measured as described.
The initial potentiated beat following prolonged rest (i.e., the PRP maximum force of contraction) reflects activator calcium available for SR release. The PRP response was used to obtain an indirect measure of left atrial SR calcium under our conditions.
Left atria (n=6) were superfused in KH, paced at 0.1 Hz, and subjected to PRP. Superfusion proceeded for another 35 min, and a second PRP was performed. These 2 forces were compared to assure the mechanical stability of our preparations.
One group (n=8) was superfused in KH, paced at 0.1 Hz, and their maximum force of contraction was measured. These atria were washed with KH containing 82 mM sodium, and a second PRP was performed 23 min later.
A second group (n=8) was paced at 0.1 Hz in KH and subjected to PRP. They were exposed to 22 μM 2-APB and, after the appearance of SMA, were washed with KH containing 22 μM 2-APB and 82 mM sodium. Superfusion continued for 23 min and a second PRP was performed.
Control 0.1 Hz paced atria (n=8) were subjected to PRP and exposed to 400 μM DIDS, and a second PRP was performed 23 min later.
A group of atria (n=8) were paced at 0.1 Hz in KH and subjected to PRP. They were exposed to 22 μM 2-APB, 400 μM DIDS was added to the superfusate after the appearance of SMA, and a second PRP was performed 23 min later.
as §1, §2, §3, §4
To test whether zatebradine affects left atrial force of contraction, two groups of left atria (n=9 per group) were paced at 3 Hz and treated with 300 nM BayK 8644. Five minutes later one group was incubated with six increasing concentrations of zatebradine (10-100 μM) for 3-5 min at each concentration, and forces of contraction were recorded. A second group was treated with BayK 8644 but not zatebradine, and forces of contraction were recorded at corresponding times.

[3] = 20 μM 2-APB plus 30 nM isoproterenol, 3 μM forskolin, 300 nM BayK 8644, 300 nM FPL-64176 or 120 μM ouabain, absence of pacing, 30° C.
[4] = no 2-APB, 30 nM isoproterenol, 3 μM forskolin, 300 nM BayK 8644 or FPL-64176, 120 μM ouabain, 600 nM ryanodine

Compound	rate of STA (SMA frequency) in presence of 2-APB and calcium loading agent (rat left atria [1]) [contractions/min]	left atrial force of contraction with agent alone (rat left atria [2])	rate of STA (SMA frequency) in presence of 2-APB and calcium loading agent (rat left atria [1]; [3])	left atrial force of contraction with agent alone (rat left atria [2]; [4])	further results
NCCOB(c1ccccc1)c1ccccc1 [2-APB, 2-aminoethoxydiphenyl borate]	–	–	–	–	rate of STA post-washing (rat left atria [1]): 0.7±0.4 contractions/min; rate of STA pre-washing (rat left atria [1]): 224±12 contractions/min; maximum force of atrial contraction (rat left atria [2]): also decreased; maximum force of left atrial contraction (rat left atria [2]): significantly decreased
COC(=O)C1=C(C)NC(C)=C([N+](=O)[O-])[C@H]1c1ccccc1C(F)(F)F [BayK 8644, (45)-1,4-Dihydro-2,6-dimethyl-5-nitro-4-[2-(trifluormethyl)phenyl]-3-pyridinecarboxylic acid methyl ester]	227±10	increase left atrial force of contraction	–	–	–
COC(=O)c1c(C)[nH]c(C)c1C(=O)c1ccccc1Cc1ccccc1 [FPL-64176, 2,5-Dimethyl-4-[2-(phenylmethyl)benzoyl]-111-pyrrole-3-carboxylic acid methyl ester]	222±9	increase left atrial force of contraction	–	–	–
CC(C)NCC(O)c1ccc(O)c(O)c1 (centres unmarked) [isoproterenol]	–	–	~230 contractions/min and 239±11 contractions/min and 225±3.6 contractions/min	increase left atrial force of contraction	–
C[C@@H]1O[C@@H](O[C@H]2C[C@@H](O)[C@]3(CO)[C@H]4[C@H](O)C[C@]5(C)[C@@H](C6=CC(=O)OC6)CC[C@]5(O)[C@@H]4CC[C@]3(O)C2)[C@H](O)[C@H](O)[C@H]1O [ouabain]	–	–	202±5.6 contractions/min	doubles their force of contraction	–
ryanodine	–	Time-dependent decreases in force of contraction	–	–	STA after depletion of ryanodine-sensitive calcium stores (rat left atria [1]; BayK 8644 and 2-APB, then 600 nM ryanodine): persists; also recorded: does not terminate STA
